What follows are molecules tested against T1, Vanilloid receptor (Rattus norvegicus, UniProt Q9ERZ8+Q9WUD2+O35433) (assay: Antagonistic activity against vanilloid receptor as concentration to reduce the response to […] by 50% from neonatal rat culture spinal sensory neurons using [Ca2+] -influx assay).
Type: functional

Row | Compound | IC50 [nM]
1 | COc1ccc(CCCN(/C(S)=N/CCc2ccccc2)C(C)C)cc1OC | 10.5
2 | COc1cc(CCCN(CCc2ccc(C)cc2)/C(S)=N/CCc2ccccc2)ccc1O | 0.95
3 | COc1cc(CCCN(CCCc2ccccc2)/C(S)=N/CCc2ccccc2)ccc1O | 3.2
4 | CCCCCCCCN(CCCc1ccc(O)c(OC)c1)/C(S)=N/CCc1ccccc1 | > 30
5 | CCCN(CCCc1ccc(O)c(OC)c1)/C(S)=N/CCc1ccccc1 | 12
6 | CC(C)N(CCCc1ccc(O)c(O)c1)/C(S)=N/CCc1ccccc1 | 9.3
7 | COc1cc(CCCN(/C(S)=N/CCc2ccccc2)C(c2ccccc2)c2ccccc2)ccc1O | 0.46
8 | COc1ccc(CCN(CCCc2ccc(O)c(OC)c2)/C(S)=N/CCc2ccccc2)cc1 | 0.72
9 | COc1cc(CCCN(CCc2ccccc2)/C(S)=N/CCc2ccc(Cl)cc2)ccc1O | 2.4
10 | COc1cc(CCCN(/C(S)=N/CCc2ccccc2)C2CCCCC2)ccc1O | 3

Further lines, results first:

Row | IC50 [nM] | Compound
11 | > 30 | CC(C)N(CCCc1ccc(O)cc1)/C(S)=N/CCc1ccccc1
12 | 0.95 | COc1cc(CCCN(Cc2ccccc2)/C(S)=N/CCc2ccccc2)ccc1O
13 | 0.32 | COc1cc(CCCN(CCc2ccccc2)/C(S)=N/CCc2ccccc2)ccc1O
14 | 6.1 | COc1cc(CCCCN(CCc2ccccc2)/C(S)=N/CCc2ccccc2)ccc1O
15 | 1.2 | COc1cc(CCCN(CCc2ccc(F)cc2)/C(S)=N/CCc2ccccc2)ccc1O
16 | 10 | CCCCN(CCCc1ccc(O)c(OC)c1)/C(S)=N/CCc1ccccc1
17 | 5.1 | COc1cc(CCCN(CCc2ccccc2)/C(S)=N/CCc2ccc(F)cc2)ccc1O
18 | 650000 | Oc1cc2c(cc1O)CN(C(=S)NCCc1ccc(Cl)cc1)CCC2 [CAPSAZEPINE]
19 | > 30 | CCN(CCCc1ccc(O)c(OC)c1)/C(S)=N/CCc1ccccc1
20 | 0.55 | COc1cc(CCCN(CCc2ccc(Cl)cc2)/C(S)=N/CCc2ccccc2)ccc1O
21 | 0.5 | COc1cc(CCCN(CCc2ccc([N+](=O)[O-])cc2)/C(S)=N/CCc2ccccc2)ccc1O
22 | 2.5 | COc1cc(CCCN(/C(S)=N/CCc2ccccc2)C(C)C)ccc1O

Each molecule was assayed against T1, Vanilloid receptor (assay: Agonistic activity towards vanilloid receptor, [Ca2+] influx in neonatal rat spinal sensory neuronal culture).
Type: functional

Row | EC50 [nM] | Compound
23 | > 30000 | COc1cc(CCCN(C)/C(S)=N/CCc2ccccc2)ccc1O
24 | > 30000 | COc1cc(CCC/N=C(\S)NCCc2ccccc2)ccc1O
25 | 3000 | COc1cc(CCC2CCCN2/C(S)=N/CCc2ccccc2)ccc1O (stereo not given)

Source: ChEMBL document CHEMBL1136576, “Synthesis of N,N',N"-trisubstituted thiourea derivatives and their antagonist effect on the vanilloid receptor” (Bioorg Med Chem Lett, 2003)
